Source: US11717549B2, “Steviol glycoside solubility enhancers” (CARGILL, INCORPORATED, priority 2017, dated 2023)

Assay: not given
Conditions: temperature 9 ° C.; cited from earlier work
For O=C(O)[C@]1(O)C[C@@H](O)[C@@H](O)[C@H](O)C1 [quinic acid (coffee beans), quinic acid], the “solubility (ppm)” value is given as 2.25E+05 ppm.

Same assay, conditions: temperature 14 ° C.; cited from earlier work
For CCOc1ccc(NC(=O)C(O)C(O)C(=O)O)cc1 (centres unmarked) [ethonyphenyl tartramic acid], the “solubility (ppm)” value is given as 3.97E+03 ppm.
In the case of O=C(O)c1ccc(O)c(O)c1 [3,4-dihydroxybenzoic acid], the “solubility (ppm)” value is given as 1.79E+04 ppm.

Same assay, conditions: temperature 15 ° C.; cited from earlier work
In the case of O=C(O)c1c(Br)cc(Br)cc1Br [2,4,6-tribromobenzoic acid], the “solubility (ppm)” value is listed as 3.49E+03 ppm.
For O=C(O)c1ccnc(C(=O)O)c1C(=O)O [2,3,4-pyridinetricarboxylic acid], the “solubility (ppm)” value is listed as 1.19E+04 ppm.

Same assay, conditions: temperature 16 ° C.; cited from earlier work
For CC(C)(C(=O)O)C(C)(CC(=O)O)C(=O)O [L-camphoronic acid], the “solubility (ppm)” value is given as 9.99E+04 ppm.

Same assay, conditions: temperature 18 ° C.; cited from earlier work
In the case of O=C1c2cccc(S(=O)O)c2C(=O)c2c1cccc2S(=O)O [1,8-anthraquinonedisulfinic acid], the “solubility (ppm)” value is listed as 2.86E+05 ppm.
In the case of O=C1c2cccc(S(=O)(=O)O)c2C(=O)c2cccc(S(=O)(=O)O)c21 [1,5-anthraquinone disulfonic acid], the “solubility (ppm)” value is given as 2.86E+05 ppm.
For O=C1c2cccc(S(=O)(=O)O)c2C(=O)c2cccc(Cl)c21 [1,5-chloroanthraquinone sulfonic acid], the “solubility (ppm)” value is listed as 2.50E+05 ppm.

Same assay, conditions: temperature 19 ° C.; cited from earlier work
For O=C(O)c1cccc(C(=O)O)c1C(=O)O [1,2,3-benzenetricarboxylic acid], the “solubility (ppm)” value is given as 2.97E+04 ppm.

Same assay, conditions: temperature 20 ° C.; cited from earlier work
In the case of C=CCC1(CC)C(=O)NC(=O)N(CCCC)C1=O (centres unmarked) [5-allyl-5-ethylbutylbarbituric acid], the “solubility (ppm)” value is listed as 3.99E+03 ppm.
In the case of Cc1ccc(N)cc1S(=O)(=O)O [4-amino-o-toluenesulfonic acid], the “solubility (ppm)” value is given as 4.48E+03 ppm.
In the case of O=C(O)c1cccc(O)c1 [m-hydroxybenzoic acid], the “solubility (ppm)” value is listed as 8.45E+03 ppm.
For O=C(O)C(CO)c1ccccc1 (stereo not drawn) [alpha-(hydroxymethyl)benezeneacetic acid], the “solubility (ppm)” value is given as 1.91E+04 ppm.
In the case of Cc1ccc([N+](=O)[O-])c(C(=O)O)c1 [6-nitro-3-methylbenzoic acid], the “solubility (ppm)” value is listed as 4.68E+03 ppm.
In the case of O=C(O)C(O)c1ccccc1 (racemic) [alpha-hydroxybenzeneacetic acid, (±)], the “solubility (ppm)” value is listed as 1.21E+05 ppm.
For CCNC(=O)[C@@H](C)OC(=O)Nc1ccccc1 [D-(−)-carbanilic acid (1-ethylcarbamoyl)ethyl ester], the “solubility (ppm)” value is listed as 3.49E+03 ppm.

Same assay, conditions: temperature 21 ° C.; cited from earlier work
In the case of CC(=O)Oc1ccccc1C(=O)OC[S+](C)[O-] (centres unmarked) [2-(acetoxy)-benzoic acid, (methylsulfinyl)methyl ester], the “solubility (ppm)” value is given as 4.21E+03 ppm.

Same assay, conditions: temperature 25 ° C.; cited from earlier work
In the case of O=C(O)c1ccc(O)cc1 [p-hydroxybenzoic acid], the “solubility (ppm)” value is given as 6.36E+03 ppm.
In the case of O=C(O)c1cccc([N+](=O)[O-])c1 [m-nitrobenzoic acid], the “solubility (ppm)” value is listed as 3.53E+03 ppm.
In the case of CCC=C(C)CCC(=O)O [4-methyl-4-heptenoic acid], the “solubility (ppm)” value is given as 4.64E+03 ppm.
For O=C(O)c1cccc([N+](=O)[O-])c1C(=O)O [3-nitrophthalic acid], the “solubility (ppm)” value is listed as 1.97E+04 ppm.
In the case of CCC(C)C=CCC(=O)O (centres unmarked) [5-methyl-3-heptenoic acid], the “solubility (ppm)” value is listed as 4.64E+03 ppm.
For Nc1ccc(C(=O)O)cc1 [aniline-4-carboxylic acid], the “solubility (ppm)” value is given as 4.98E+03 ppm.
For CCCC(C)CC(=O)O (centres unmarked) [3-methylhexanoic acid], the “solubility (ppm)” value is given as 4.80E+03 ppm.
In the case of CCC(C)=CCCC(=O)O [5-methyl-4-heptenoic acid], the “solubility (ppm)” value is listed as 4.64E+03 ppm.
In the case of CCC(C)(CC)C(=O)O [2-ethyl-2-methylbutanoic acid], the “solubility (ppm)” value is given as 9.69E+03 ppm.
For O=C(O)c1cc(Cl)ccc1[N+](=O)[O-] [5-chloro-2-nitrobenzoic acid], the “solubility (ppm)” value is given as 9.58E+03 ppm.
For CC(CCCCCC(=O)O)CC(=O)O (centres unmarked) [3-methylnonanedioic acid], the “solubility (ppm)” value is given as 5.53E+03 ppm.
For CC(C)CC=CC(=O)O [5-methyl-2-hexenoic acid], the “solubility (ppm)” value is listed as 5.37E+03 ppm.
In the case of CC(C)CCCC(=O)O [5-methylhexanoic acid], the “solubility (ppm)” value is given as 3.93E+03 ppm.
For O=C(O)c1cc(=O)c(O)c(C(=O)O)o1 [3-hydroxy-4-oxo-4H-pyran-2,6-dicarboxylic acid], the “solubility (ppm)” value is listed as 8.33E+03 ppm.
In the case of CC1(C)[C@@H](C(=O)O)CC[C@@]1(C)C(=O)O (relative stereo) [cis-1,2,2-trimethyl-1,3-cyclopentanedicarboxylic acid, (1R)], the “solubility (ppm)” value is listed as 7.54E+03 ppm.
For CC(C)(C)C(CCC(=O)O)CC(=O)O (centres unmarked) [3-tert-butyl adipic acid], the “solubility (ppm)” value is listed as 6.14E+03 ppm.
For CCCC/C=C/C(=O)O [trans-2-heptenoic acid], the “solubility (ppm)” value is listed as 5.37E+03 ppm.
For O=C(O[C@@H](C(=O)O)c1ccccc1)c1ccccc1 [benzoyl-r-mandelic acid], the “solubility (ppm)” value is listed as 7.78E+03 ppm.
For CCCCC(C)(C)C(=O)O [2,2-dimethylhexanoic acid], the “solubility (ppm)” value is listed as 3.44E+03 ppm.
For CCCC=CCC(=O)O [3-heptenoic acid], the “solubility (ppm)” value is given as 5.37E+03 ppm.
In the case of CCCC=CC(C)C(=O)O (centres unmarked) [2-methyl-3-heptenoic acid], the “solubility (ppm)” value is listed as 4.64E+03 ppm.
For O=C(O)c1cccnc1C(=O)O [2,3-pyridinedicarboxylic acid], the “solubility (ppm)” value is given as 1.09E+04 ppm.
For CCCOC(=O)OC(C)C(=O)OC (centres unmarked) [propanoic acid, 2-[(propoxycarbonyl)oxy]-, methyl ester], the “solubility (ppm)” value is given as 5.15E+03 ppm.
For CC(=O)Oc1ccccc1C(=O)O [2-(acetyloxy)benzoic acid], the “solubility (ppm)” value is listed as 4.58E+03 ppm.
For O=C1NC(=O)C2(CCC2)C(=O)N1 [5,5-trimethylenebarbituric acid], the “solubility (ppm)” value is given as 3.71E+03 ppm.
For CCCC(C)=CCC(=O)O [4-methyl-3-heptenoic acid], the “solubility (ppm)” value is given as 4.64E+03 ppm.
For O=C(O)c1cc(=O)cc(C(=O)O)o1 [4-oxo-4H-pyran-2,6-dicarboxylic acid], the “solubility (ppm)” value is given as 1.41E+04 ppm.
In the case of CCCCC(C)=CC(=O)O [3-methyl-2-heptenoic acid], the “solubility (ppm)” value is given as 4.64E+03 ppm.
For CC(C)CC=CCC(=O)O [6-methyl-3-heptenoic acid], the “solubility (ppm)” value is given as 4.64E+03 ppm.
In the case of CC(C)(CCCC(C)(C)C(=O)O)C(=O)O [a,a,a′,a′-tetramethylheptanedioic acid], the “solubility (ppm)” value is listed as 7.55E+03 ppm.
In the case of O=C(O)c1ccccc1C(F)(F)F [2-(trifluoromethyl)benzoic acid], the “solubility (ppm)” value is given as 4.78E+03 ppm.
For CCC=CCCC(=O)O [4-heptenoic acid], the “solubility (ppm)” value is listed as 5.37E+03 ppm.
For O=C(O)[C@@H](O)c1ccccc1 [alpha-hydroxybenzeneacetic acid, (S)], the “solubility (ppm)” value is given as 9.26E+04 ppm.
For O=C(O)c1ccc(O)cc1O [2,4-dihydroxybenzoic acid], the “solubility (ppm)” value is given as 5.96E+03 ppm.
For CCC=CC(C)CC(=O)O (centres unmarked) [3-methyl-4-heptenoic acid], the “solubility (ppm)” value is given as 4.64E+03 ppm.
In the case of CCCC=C(C)CC(=O)O [3-methyl-3-heptenoic acid], the “solubility (ppm)” value is listed as 4.64E+03 ppm.

Same assay, conditions: temperature 37 ° C.; cited from earlier work
For CC(=O)N(CC(C)C(=O)O)c1c(I)cc(I)c(N)c1I (centres unmarked) [iocetamic acid], the “solubility (ppm)” value is listed as 5.26E+03 ppm.
For CCC(COCCOc1c(I)cc(I)c(NC(C)=O)c1I)C(=O)O (centres unmarked) [iopronic acid], the “solubility (ppm)” value is given as 1.97E+04 ppm.

Same assay, conditions: temperature 100 ° C.; cited from earlier work
In the case of Cc1ccc(C(=O)O)c(O)c1 [2-hydroxy-4-methylbenzoic acid], the “solubility (ppm)” value is listed as 1.00E+04 ppm.
For Cc1ccc(O)c(C(=O)O)c1 [2-hydroxy-5-methylbenzoic acid], the “solubility (ppm)” value is listed as 2.14E+04 ppm.
For O=C(O)c1cccc(C(=O)O)c1O [2-hydroxyisophthalic acid], the “solubility (ppm)” value is given as 2.57E+04 ppm.

Same assay, conditions: temperature not given; cited from earlier work
For O=C(O)c1c(Cl)cccc1Cl [2,6-dichlorobenzoic acid], the “solubility (ppm)” value is listed as 1.39E+04 ppm.

Assay: Equilibrium solubility: mixed with deionized water at 80° C. for 15 minutes, cooled to room temperature, observed at least four days
Format: physicochemical
Conditions: after heating to 80° C. for 15 minutes
Description: (§1) The composition can optionally be expressed in terms of the concentration of one or more steviol glycoside(s). […] Clear solutions without precipitates are considered soluble. Unless indicated otherwise herein, the term “solubility” refers to “equilibrium solubility.”
In the case of C=C1C[C@@]23CC[C@H]4[C@@](C)(CCC[C@@]4(C)C(=O)O[C@@H]4O[C@H](CO)[C@@H](O)[C@H](O)[C@H]4O[C@@H]4O[C@H](CO)[C@@H](O)[C@H](O)[C@H]4O)[C@@H]2CC[C@]1(O[C@@H]1O[C@H](CO)[C@@H](O)[C@H](O[C@@H]2O[C@H](CO)[C@@H](O)[C@H](O)[C@H]2O)[C@H]1O[C@@H]1O[C@H](CO)[C@@H](O)[C@H](O)[C@H]1O)C3 [Rebaudioside D, rebaudioside D], the equilibrium solubility is reported as 0.08%.
For C=C1C[C@@]23CC[C@H]4[C@@](C)(CCC[C@@]4(C)C(=O)O[C@@H]4O[C@H](CO)[C@@H](O)[C@H](O[C@@H]5O[C@H](CO)[C@@H](O)[C@H](O)[C@H]5O)[C@H]4O[C@@H]4O[C@H](CO)[C@@H](O)[C@H](O)[C@H]4O)[C@@H]2CC[C@]1(O[C@@H]1O[C@H](CO)[C@@H](O)[C@H](O[C@@H]2O[C@H](CO)[C@@H](O)[C@H](O)[C@H]2O)[C@H]1O[C@@H]1O[C@H](CO)[C@@H](O)[C@H](O)[C@H]1O)C3 [Rebaudioside M, rebaudioside M], the equilibrium solubility was “about 0.2%”.

Assay: not given
Conditions: in beverage formulations; cited from earlier work
For C=C1C[C@@]23CC[C@H]4[C@@](C)(CCC[C@@]4(C)C(=O)O[C@@H]4O[C@H](CO)[C@@H](O)[C@H](O[C@@H]5O[C@H](CO)[C@@H](O)[C@H](O)[C@H]5O)[C@H]4O[C@@H]4O[C@H](CO)[C@@H](O)[C@H](O)[C@H]4O)[C@@H]2CC[C@]1(O[C@@H]1O[C@H](CO)[C@@H](O)[C@H](O[C@@H]2O[C@H](CO)[C@@H](O)[C@H](O)[C@H]2O)[C@H]1O[C@@H]1O[C@H](CO)[C@@H](O)[C@H](O)[C@H]1O)C3 [Rebaudioside M, rebaudioside M], the “aqueous solubility and dissolution qualities” value is listed as “poor aqueous solubility”.

Assay: Instantaneous solubility: vigorously mixed with water at room temperature (25° C.)
Format: physicochemical
Conditions: in water at room temperature, absence of compounds that enhance solubility
Description: as §1
For C=C1C[C@@]23CC[C@H]4[C@@](C)(CCC[C@@]4(C)C(=O)O[C@@H]4O[C@H](CO)[C@@H](O)[C@H](O)[C@H]4O[C@@H]4O[C@H](CO)[C@@H](O)[C@H](O)[C@H]4O)[C@@H]2CC[C@]1(O[C@@H]1O[C@H](CO)[C@@H](O)[C@H](O[C@@H]2O[C@H](CO)[C@@H](O)[C@H](O)[C@H]2O)[C@H]1O[C@@H]1O[C@H](CO)[C@@H](O)[C@H](O)[C@H]1O)C3 [Rebaudioside D, rebaudioside D], the instantaneous solubility was “less than 0.08%”.
With C=C1C[C@@]23CC[C@H]4[C@@](C)(CCC[C@@]4(C)C(=O)O[C@@H]4O[C@H](CO)[C@@H](O)[C@H](O[C@@H]5O[C@H](CO)[C@@H](O)[C@H](O)[C@H]5O)[C@H]4O[C@@H]4O[C@H](CO)[C@@H](O)[C@H](O)[C@H]4O)[C@@H]2CC[C@]1(O[C@@H]1O[C@H](CO)[C@@H](O)[C@H](O[C@@H]2O[C@H](CO)[C@@H](O)[C@H](O)[C@H]2O)[C@H]1O[C@@H]1O[C@H](CO)[C@@H](O)[C@H](O)[C@H]1O)C3 [Rebaudioside M, rebaudioside M] the instantaneous solubility was “about 0.13%”.
